Reference: PubChem BioAssay AID424 (Public Access to Neuroactive & Anticonvulsant Chemical …, 2006)

Assays:
[1] = anticonvulsant potency and neurotoxicity in rodents, summary, in vivo study, quantitative, MES, scMET, kindled rat, Frings mice (AID 424)
[2] = system: mouse i.p. maximal electroshock seizure protection, ED50; experiment: as above
[3] = measured here: kindled rat ED50

SMILES	ED50 ([1]; Frings audiogenic mouse ED50) [mg/kg]	TD50 ([1]; i.p. mouse neurotoxicity TD50) [mg/kg]	ED50 ([1]; i.p. mouse scBic ED50) [mg/kg]	ED50 ([1]; i.p. mouse scMET ED50) [mg/kg]	ED50 ([1]; i.p. mouse scPic ED50) [mg/kg]	ED50 ([1]; i.p. rat MES ED50) [mg/kg]	ED50 ([1]; oral mouse MES ED50) [mg/kg]	ED50 ([1]; oral mouse scMET ED50) [mg/kg]	ED50 ([1]; oral rat MES ED50) [mg/kg]	ED50 ([1]; oral rat scMET ED50) [mg/kg]	TD50 ([1]; oral rat toxicity TD50) [mg/kg]	ED50 [2] [mg/kg]	ED50 [2, 3] [mg/kg]
NC(=O)N1c2ccccc2C=Cc2ccccc21	11.2	45.4	> 50	> 50	18.2	4.05	11.9	40.9	5.35	> 250	364	7.81	28.2
CCC1(C)CC(=O)NC1=O (configuration not stated)	328	341	272	136	226	> 220	> 1000	203	> 500	167	> 500	–	–
O=C1CN=C(c2ccccc2Cl)c2cc([N+](=O)[O-])ccc2N1	0.105	0.264	0.039	0.024	0.074	0.67	42.8	0.03	7.86	0.607	2.38	25.5	0.79
CCC1(c2ccccc2)C(=O)NC(=O)NC1=O	–	45.5	37.7	13.9	27.5	2.61	–	–	8.26	26.1	51	11.3	19.7
CCN(CC)CC(=O)Nc1c(C)cccc1C	–	65.1	> 70	> 66	> 70	–	21	> 140	31.2	> 250	283	14.4	–
